One assay concerns the target T1, SeMetC (Staphylococcus epidermidis, UniProt Q5HRU7).
T1 construct: gene SERP0095; full length; expressed in E. coli MC1061; species of 'Se' not spelt out
T1 sequence (Q5HRU7 1-381): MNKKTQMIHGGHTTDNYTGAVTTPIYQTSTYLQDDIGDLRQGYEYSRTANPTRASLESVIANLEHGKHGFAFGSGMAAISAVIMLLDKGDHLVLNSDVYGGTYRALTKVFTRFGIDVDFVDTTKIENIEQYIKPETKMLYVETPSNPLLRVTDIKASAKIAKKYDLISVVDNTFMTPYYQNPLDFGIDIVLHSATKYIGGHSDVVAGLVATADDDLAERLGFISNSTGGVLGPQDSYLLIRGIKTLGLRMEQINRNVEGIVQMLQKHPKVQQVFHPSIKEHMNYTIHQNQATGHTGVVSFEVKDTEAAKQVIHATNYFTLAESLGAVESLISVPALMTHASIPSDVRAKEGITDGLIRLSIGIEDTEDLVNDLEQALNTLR
Put plainly: DTNB thiol release, A412, Michaelis-Menten. It counts as biochemical. The settings on record: pH 7.8, 50 mM KPi, 200 mM NaCl, 37 °C, 0.4 mM DTNB.

The target in another assay is T2, SaPatB (Streptococcus anginosus, UniProt A6BMJ3).
T2 construct: gene lcd; full length; expressed in E. coli MC1061
T2 sequence (A6BMJ3 1-388): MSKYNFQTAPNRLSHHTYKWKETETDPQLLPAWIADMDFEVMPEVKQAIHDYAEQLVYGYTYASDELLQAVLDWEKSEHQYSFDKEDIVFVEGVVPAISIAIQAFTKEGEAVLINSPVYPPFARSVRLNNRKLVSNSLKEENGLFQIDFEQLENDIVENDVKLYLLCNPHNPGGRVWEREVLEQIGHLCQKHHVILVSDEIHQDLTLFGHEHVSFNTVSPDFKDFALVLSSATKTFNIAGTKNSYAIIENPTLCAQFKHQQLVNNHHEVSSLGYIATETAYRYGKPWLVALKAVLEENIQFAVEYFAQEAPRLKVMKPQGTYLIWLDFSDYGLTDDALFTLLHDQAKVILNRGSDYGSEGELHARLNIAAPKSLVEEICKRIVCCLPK
As to the kind of experiment: DTNB thiol release, A412, Michaelis-Menten. In kind it is biochemical. The settings on record: pH 7.8, 50 mM KPi, 200 mM NaCl, 37 °C, 0.4 mM DTNB.

For assay [1], the target named is T3, BsPatB (Bacillus subtilis, UniProt Q08432).
T3 construct: gene patB; full length; N-terminal MGGGFA and C-terminal ENLYFQG-His10; expressed in E. coli MC1061; homodimer, PLP on Lys234
T3 sequence (Q08432 whole entry): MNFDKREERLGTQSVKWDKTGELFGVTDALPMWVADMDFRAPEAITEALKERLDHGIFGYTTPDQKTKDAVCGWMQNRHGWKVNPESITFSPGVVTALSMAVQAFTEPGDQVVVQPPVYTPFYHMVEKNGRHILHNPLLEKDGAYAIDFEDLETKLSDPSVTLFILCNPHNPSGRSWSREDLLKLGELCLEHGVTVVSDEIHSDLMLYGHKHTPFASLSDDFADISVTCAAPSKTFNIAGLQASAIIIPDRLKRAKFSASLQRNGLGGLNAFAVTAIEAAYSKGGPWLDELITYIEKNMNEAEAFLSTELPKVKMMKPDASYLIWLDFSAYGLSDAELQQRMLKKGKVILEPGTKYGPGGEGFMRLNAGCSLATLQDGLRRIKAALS
Put plainly: DTNB thiol release, A412, Michaelis-Menten. It counts as biochemical. The settings on record: pH 7.8, 50 mM KPi, 200 mM NaCl, 37 °C, 0.4 mM DTNB.

In a further assay the target is T4, CjAecD (Corynebacterium jeikeium, UniProt Q4JWQ6).
T4 construct: gene aecD; full length; expressed in E. coli MC1061
T4 sequence (Q4JWQ6 1-416): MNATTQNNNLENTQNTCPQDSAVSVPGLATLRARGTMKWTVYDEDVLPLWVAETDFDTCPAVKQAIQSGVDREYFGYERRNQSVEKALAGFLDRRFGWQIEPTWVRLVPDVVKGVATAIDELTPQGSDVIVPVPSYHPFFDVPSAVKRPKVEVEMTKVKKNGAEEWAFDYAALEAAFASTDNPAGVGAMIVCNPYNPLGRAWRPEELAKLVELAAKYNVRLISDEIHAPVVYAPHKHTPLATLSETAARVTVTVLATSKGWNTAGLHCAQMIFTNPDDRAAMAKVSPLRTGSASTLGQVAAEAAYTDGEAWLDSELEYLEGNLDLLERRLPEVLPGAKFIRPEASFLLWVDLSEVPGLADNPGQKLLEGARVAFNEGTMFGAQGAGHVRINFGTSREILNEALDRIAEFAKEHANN
As to the kind of experiment: DTNB thiol release, A412, Michaelis-Menten. As to conditions: pH 7.8, 50 mM KPi, 200 mM NaCl, 37 °C, 0.4 mM DTNB. It counts as biochemical.

In a further assay the target is T5, EcMalY (Escherichia coli, UniProt P23256).
T5 construct: gene malY; full length; N-terminal MGGGFA and C-terminal ENLYFQG-His10; expressed in E. coli MC1061
T5 sequence (P23256 whole entry): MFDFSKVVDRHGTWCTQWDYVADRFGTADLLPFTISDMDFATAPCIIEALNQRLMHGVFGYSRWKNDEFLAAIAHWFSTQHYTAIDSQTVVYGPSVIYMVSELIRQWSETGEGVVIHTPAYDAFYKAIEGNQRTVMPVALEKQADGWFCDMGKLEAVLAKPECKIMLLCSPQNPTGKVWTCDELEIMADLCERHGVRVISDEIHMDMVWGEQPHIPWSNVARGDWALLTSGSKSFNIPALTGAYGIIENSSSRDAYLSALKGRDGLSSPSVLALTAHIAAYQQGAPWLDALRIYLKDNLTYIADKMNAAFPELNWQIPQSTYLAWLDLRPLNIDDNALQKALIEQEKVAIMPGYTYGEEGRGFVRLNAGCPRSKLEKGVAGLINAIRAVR
Put plainly: DTNB thiol release, A412, Michaelis-Menten. It counts as biochemical. The settings on record: pH 7.8, 50 mM KPi, 200 mM NaCl, 37 °C, 0.4 mM DTNB.

Another assay deals with T6, ShMetC (Staphylococcus hominis, UniProt Z9HEU7RWP2).
T6 construct: full length; expressed in E. coli MC1061; species of 'Sh' not spelt out for MetC (S. haemolyticus possible)
Put plainly: DTNB thiol release, A412, Michaelis-Menten. The settings on record: pH 7.8, 50 mM KPi, 200 mM NaCl, 37 °C, 0.4 mM DTNB. It counts as biochemical.

The target in assay [2] is T7, ShPatB (Staphylococcus hominis, UniProt Z9H0M2I6C5).
T7 construct: full length; pBADcLIC, expressed in E. coli MC1061; homodimer, PLP on Lys246
T7 sequence (Z9H0M2I6C5 7-404): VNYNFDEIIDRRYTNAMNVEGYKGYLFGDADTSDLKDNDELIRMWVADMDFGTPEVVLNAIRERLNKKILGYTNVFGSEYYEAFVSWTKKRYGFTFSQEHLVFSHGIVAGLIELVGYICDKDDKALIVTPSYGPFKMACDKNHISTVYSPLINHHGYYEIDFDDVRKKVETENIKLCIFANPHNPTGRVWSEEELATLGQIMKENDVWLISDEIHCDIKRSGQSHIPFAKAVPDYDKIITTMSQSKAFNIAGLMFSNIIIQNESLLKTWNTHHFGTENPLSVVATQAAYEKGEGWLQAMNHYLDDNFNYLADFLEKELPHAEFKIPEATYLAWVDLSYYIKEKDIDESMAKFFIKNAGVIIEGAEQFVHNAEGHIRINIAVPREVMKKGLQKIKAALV
As to the kind of experiment: DTNB thiol release, A412, Michaelis-Menten. As to conditions: pH 7.8, 50 mM KPi, 200 mM NaCl, 37 °C, 0.4 mM DTNB. It counts as biochemical.

The target of assay [3] is T7, ShPatB. Put plainly: end point DTNB assay, A412. It counts as biochemical. As to conditions: 2.5 μM enzyme, 2.5 mM Cys-3M3SH; covalent to PLP, reversed by excess PLP.
In assay [4] the target is T7, ShPatB. Put plainly: X-ray crystallography, […] Å. It counts as binding. The settings on record: covalent internal aldimine at Lys246.
Assay [5] deals with T3, BsPatB. Put plainly: X-ray crystallography, […] Å. In kind it is binding. As to conditions: covalent internal aldimine at Lys234.

For `N[C@@H](CCSC[C@H](N)C(=O)O)C(=O)O` [cystathionine], the KM result on SeMetC is “higher activities against cystathionine, similar to the MetC enzymes included (ShMetC and SeMetC)”; at SaPatB it was “Streptococcus anginosus (SaPatB) did not discriminate between the two ligands”; on BsPatB [1], “B. subtilis (BsPatB) and Streptococcus anginosus (SaPatB) did not discriminate between the two ligands”; on CjAecD it was “CjAecD is selective for cystathionine over Cys-3M3SH”; on EcMalY it was “E. coli MalY (EcMalY) had higher activities against cystathionine”; at ShMetC, “higher activities against cystathionine, similar to the MetC enzymes included (ShMetC and SeMetC)”.

For the compound `CCCC(C)(CCO)SC[C@H](N)C(=O)O` (some centres unmarked) [Cys-3M3SH], the KM result at SaPatB is “Streptococcus anginosus (SaPatB) did not discriminate between the two ligands”; at BsPatB [1], “B. subtilis (BsPatB) and Streptococcus anginosus (SaPatB) did not discriminate between the two ligands”; at EcMalY it was “E. coli MalY (EcMalY) had higher activities against cystathionine”; at ShPatB [2], “ShPatB exhibits selectivity towards Cys-3M3SH”.

With `CC(C)(CCO)SC[C@H](N)C(=O)O` [Felinine], the KM entry at ShPatB [2] is given as “We also measured enzyme activity against Felinine, a close structural analog of Cys-3M3SH”.

Turning to `N[C@H]1CONC1=O` [LCS, L-cycloserine], at ShPatB [3], the “inhibition (end point)” value is recorded as “Cycloserine in vitro inhibition of ShPatB with Cys-3M3SH as the substrate”.

Regarding `Cc1ncc(COP(=O)(O)O)c(C=O)c1O` [PLP, pyridoxal phosphate], the “X-ray crystallography, 1.6 Å” value at ShPatB [4] is “each subunit containing a PLP moiety covalently bound to a conserved lysine residue”. Also, the “X-ray crystallography, 2.3 Å” value at BsPatB [5] is listed as “each subunit containing a PLP moiety covalently bound to a conserved lysine residue”.

These data come from paper PMC7385124, “The molecular basis of thioalcohol production in human body odour” (Scientific Reports, 2020).
